{"source": "paper PMC11864979", "about": "“First-in-class ultralong-target-residence-time p38α inhibitors as a mitosis-targeted therapy for colorectal cancer” (Nature Cancer, 2025)", "assay_in_all_cases": "selectivity profiling in a panel of 340 wild-type kinases (Reaction Biology Europe)", "type_in_all_cases": "binding", "key": {"340 wild-type kinases [1]": {"molecular_target": "T1, 340 wild-type kinases (Homo sapiens, UniProt Q5TCY1)", "T1 construct": "purchased Reaction Biology Europe"}, "340 wild-type kinases [2]": {"molecular_target": "T2, 340 wild-type kinases (Homo sapiens, UniProt P31751)", "T2 construct": "purchased Reaction Biology Europe", "T2 sequence (P31751 whole entry)": "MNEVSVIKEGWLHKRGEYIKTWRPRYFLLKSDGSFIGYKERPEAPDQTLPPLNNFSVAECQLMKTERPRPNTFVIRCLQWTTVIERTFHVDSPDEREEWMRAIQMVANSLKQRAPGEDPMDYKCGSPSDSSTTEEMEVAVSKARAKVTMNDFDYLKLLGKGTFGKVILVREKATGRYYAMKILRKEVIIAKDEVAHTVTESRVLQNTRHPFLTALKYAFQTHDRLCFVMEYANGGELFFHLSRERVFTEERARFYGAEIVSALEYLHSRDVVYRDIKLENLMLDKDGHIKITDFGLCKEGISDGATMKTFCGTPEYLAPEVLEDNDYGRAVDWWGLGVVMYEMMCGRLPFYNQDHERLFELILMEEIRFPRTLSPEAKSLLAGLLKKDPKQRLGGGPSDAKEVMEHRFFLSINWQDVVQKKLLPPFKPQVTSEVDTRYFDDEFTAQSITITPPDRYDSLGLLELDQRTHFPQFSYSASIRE"}, "340 wild-type kinases [3]": {"molecular_target": "T3, 340 wild-type kinases (Homo sapiens, UniProt Q9NWZ3)", "T3 construct": "purchased Reaction Biology Europe", "T3 sequence (Q9NWZ3 1-460)": "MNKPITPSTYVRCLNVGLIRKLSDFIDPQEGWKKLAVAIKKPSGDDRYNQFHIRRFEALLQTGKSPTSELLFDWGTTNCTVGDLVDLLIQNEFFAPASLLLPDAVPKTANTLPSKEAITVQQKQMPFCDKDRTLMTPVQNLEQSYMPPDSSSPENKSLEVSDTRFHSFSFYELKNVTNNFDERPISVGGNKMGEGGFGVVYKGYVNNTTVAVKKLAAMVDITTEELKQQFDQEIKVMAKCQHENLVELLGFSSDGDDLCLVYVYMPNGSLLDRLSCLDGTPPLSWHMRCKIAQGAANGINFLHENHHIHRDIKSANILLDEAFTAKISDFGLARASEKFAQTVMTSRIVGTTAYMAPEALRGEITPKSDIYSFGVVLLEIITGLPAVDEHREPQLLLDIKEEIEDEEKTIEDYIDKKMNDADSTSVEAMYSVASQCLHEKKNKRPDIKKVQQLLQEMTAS"}, "340 wild-type kinases [4]": {"molecular_target": "T4, 340 wild-type kinases (Homo sapiens, UniProt P08069)", "T4 construct": "purchased Reaction Biology Europe", "T4 sequence (P08069 31-1367)": "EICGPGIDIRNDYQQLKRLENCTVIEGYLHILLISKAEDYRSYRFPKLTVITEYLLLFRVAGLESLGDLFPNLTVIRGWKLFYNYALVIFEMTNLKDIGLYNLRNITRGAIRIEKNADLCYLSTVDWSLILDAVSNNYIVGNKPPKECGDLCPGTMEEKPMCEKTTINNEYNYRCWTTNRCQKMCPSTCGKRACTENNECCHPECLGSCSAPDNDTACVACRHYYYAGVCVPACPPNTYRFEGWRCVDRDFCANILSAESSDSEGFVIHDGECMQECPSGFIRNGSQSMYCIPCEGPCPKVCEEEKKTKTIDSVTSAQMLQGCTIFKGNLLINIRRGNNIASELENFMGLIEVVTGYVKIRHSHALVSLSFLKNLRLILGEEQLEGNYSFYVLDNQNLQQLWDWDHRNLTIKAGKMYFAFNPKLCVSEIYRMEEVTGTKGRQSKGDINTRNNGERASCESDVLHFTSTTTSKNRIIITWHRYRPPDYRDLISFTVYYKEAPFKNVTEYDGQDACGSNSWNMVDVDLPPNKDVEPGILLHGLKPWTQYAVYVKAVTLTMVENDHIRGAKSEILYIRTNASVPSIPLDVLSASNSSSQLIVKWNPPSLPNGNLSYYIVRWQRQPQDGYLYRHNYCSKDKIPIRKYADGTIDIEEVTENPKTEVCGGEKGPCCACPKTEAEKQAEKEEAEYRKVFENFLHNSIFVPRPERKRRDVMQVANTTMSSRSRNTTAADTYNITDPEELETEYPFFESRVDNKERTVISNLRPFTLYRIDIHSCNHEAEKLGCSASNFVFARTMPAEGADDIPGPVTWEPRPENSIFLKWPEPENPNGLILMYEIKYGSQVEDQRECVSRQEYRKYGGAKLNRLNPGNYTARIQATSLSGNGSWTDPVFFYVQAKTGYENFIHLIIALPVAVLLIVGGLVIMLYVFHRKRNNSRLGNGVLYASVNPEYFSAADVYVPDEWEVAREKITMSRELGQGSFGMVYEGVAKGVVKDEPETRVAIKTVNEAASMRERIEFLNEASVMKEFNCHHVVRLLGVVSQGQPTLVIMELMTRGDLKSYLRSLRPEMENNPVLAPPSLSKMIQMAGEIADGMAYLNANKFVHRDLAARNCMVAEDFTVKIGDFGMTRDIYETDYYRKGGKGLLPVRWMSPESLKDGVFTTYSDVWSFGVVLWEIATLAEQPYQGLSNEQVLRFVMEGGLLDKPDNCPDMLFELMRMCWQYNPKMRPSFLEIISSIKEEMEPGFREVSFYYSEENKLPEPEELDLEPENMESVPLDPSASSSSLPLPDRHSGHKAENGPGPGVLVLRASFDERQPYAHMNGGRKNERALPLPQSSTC"}, "340 wild-type kinases [5]": {"molecular_target": "T5, 340 wild-type kinases (Homo sapiens, UniProt O00311)", "T5 construct": "purchased Reaction Biology Europe", "T5 sequence (O00311 whole entry)": "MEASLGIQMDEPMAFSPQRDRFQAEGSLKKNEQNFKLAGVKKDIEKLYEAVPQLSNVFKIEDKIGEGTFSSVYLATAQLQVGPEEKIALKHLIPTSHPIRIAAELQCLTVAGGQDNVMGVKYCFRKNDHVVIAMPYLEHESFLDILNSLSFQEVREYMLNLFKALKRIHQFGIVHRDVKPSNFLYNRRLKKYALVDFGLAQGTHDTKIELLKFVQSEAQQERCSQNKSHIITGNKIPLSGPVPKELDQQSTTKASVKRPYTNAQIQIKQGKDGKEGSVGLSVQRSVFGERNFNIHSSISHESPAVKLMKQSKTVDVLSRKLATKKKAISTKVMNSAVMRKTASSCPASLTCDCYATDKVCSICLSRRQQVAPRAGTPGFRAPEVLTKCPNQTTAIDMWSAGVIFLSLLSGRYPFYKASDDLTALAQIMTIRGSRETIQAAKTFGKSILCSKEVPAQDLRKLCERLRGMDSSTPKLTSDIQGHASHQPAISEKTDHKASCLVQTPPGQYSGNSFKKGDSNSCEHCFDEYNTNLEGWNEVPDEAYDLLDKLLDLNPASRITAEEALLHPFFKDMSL"}, "340 wild-type kinases [6]": {"molecular_target": "T6, 340 wild-type kinases (Homo sapiens, UniProt Q16816)", "T6 construct": "purchased Reaction Biology Europe", "T6 sequence (Q16816 whole entry)": "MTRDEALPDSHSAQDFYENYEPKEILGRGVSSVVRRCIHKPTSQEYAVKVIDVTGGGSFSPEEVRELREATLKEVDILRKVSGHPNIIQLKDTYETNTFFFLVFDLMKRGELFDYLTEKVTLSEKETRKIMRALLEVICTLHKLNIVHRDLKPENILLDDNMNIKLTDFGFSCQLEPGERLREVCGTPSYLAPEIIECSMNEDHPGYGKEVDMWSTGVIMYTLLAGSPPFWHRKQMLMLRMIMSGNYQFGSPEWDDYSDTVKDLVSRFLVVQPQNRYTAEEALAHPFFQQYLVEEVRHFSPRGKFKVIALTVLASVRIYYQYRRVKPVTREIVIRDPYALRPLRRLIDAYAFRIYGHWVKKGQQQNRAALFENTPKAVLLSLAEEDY"}, "340 wild-type kinases [7]": {"molecular_target": "T7, 340 wild-type kinases (Homo sapiens, UniProt Q99683)", "T7 construct": "purchased Reaction Biology Europe", "T7 sequence (Q99683 1-1374)": "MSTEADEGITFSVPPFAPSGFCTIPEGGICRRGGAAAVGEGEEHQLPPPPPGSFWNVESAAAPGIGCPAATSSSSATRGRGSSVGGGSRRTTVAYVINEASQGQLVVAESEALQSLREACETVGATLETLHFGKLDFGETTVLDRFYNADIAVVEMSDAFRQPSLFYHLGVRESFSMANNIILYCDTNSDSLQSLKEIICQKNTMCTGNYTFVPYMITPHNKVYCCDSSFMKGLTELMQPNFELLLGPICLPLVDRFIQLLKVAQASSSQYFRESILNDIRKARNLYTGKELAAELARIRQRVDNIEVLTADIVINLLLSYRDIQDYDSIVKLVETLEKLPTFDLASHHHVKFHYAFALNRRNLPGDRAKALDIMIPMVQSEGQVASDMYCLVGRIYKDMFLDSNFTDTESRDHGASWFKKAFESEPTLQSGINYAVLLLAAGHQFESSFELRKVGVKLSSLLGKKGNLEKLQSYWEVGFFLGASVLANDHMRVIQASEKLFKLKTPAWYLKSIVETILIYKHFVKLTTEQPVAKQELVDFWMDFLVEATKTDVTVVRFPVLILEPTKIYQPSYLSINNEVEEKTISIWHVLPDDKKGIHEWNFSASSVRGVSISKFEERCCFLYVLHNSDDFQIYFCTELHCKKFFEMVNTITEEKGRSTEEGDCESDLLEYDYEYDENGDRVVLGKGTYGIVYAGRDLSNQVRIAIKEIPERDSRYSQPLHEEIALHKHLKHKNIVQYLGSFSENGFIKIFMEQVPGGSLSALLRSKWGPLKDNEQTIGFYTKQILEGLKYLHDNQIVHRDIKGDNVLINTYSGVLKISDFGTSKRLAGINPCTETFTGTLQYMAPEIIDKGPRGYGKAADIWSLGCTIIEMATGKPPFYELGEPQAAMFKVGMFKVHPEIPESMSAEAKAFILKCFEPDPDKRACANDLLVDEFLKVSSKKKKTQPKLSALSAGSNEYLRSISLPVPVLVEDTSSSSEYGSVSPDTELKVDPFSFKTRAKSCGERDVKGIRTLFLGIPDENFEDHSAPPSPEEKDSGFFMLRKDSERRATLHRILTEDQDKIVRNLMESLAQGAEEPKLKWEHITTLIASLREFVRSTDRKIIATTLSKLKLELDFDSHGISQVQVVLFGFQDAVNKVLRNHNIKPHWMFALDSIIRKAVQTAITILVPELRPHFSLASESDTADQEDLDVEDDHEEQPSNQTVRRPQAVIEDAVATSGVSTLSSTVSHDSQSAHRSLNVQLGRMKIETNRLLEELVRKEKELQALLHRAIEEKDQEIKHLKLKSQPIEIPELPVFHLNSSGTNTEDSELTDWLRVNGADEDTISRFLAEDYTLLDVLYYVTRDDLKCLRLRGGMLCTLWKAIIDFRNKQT"}, "340 wild-type kinases [8]": {"molecular_target": "T8, 340 wild-type kinases (Homo sapiens, UniProt Q9NYY3)", "T8 construct": "purchased Reaction Biology Europe", "T8 sequence (Q9NYY3 whole entry)": "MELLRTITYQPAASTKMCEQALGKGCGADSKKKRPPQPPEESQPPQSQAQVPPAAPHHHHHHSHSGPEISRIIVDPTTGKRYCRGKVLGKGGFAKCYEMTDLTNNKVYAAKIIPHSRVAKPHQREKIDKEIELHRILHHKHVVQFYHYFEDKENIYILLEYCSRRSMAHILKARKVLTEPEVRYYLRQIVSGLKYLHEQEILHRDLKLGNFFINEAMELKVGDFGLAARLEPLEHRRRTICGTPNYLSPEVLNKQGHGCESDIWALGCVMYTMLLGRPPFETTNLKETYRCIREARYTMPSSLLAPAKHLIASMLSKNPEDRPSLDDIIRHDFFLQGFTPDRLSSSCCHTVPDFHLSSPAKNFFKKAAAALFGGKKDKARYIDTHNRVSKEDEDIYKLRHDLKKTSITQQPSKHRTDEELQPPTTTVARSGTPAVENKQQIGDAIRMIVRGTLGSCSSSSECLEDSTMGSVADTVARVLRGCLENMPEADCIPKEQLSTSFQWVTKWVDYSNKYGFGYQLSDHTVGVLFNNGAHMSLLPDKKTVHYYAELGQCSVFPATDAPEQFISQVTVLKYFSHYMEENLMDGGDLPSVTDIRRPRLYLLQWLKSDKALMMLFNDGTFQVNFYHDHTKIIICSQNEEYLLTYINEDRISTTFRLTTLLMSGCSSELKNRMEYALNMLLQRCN"}, "340 wild-type kinases [9]": {"molecular_target": "T9, 340 wild-type kinases (Homo sapiens, UniProt Q86Z02)", "T9 construct": "purchased Reaction Biology Europe", "T9 sequence (Q86Z02 whole entry)": "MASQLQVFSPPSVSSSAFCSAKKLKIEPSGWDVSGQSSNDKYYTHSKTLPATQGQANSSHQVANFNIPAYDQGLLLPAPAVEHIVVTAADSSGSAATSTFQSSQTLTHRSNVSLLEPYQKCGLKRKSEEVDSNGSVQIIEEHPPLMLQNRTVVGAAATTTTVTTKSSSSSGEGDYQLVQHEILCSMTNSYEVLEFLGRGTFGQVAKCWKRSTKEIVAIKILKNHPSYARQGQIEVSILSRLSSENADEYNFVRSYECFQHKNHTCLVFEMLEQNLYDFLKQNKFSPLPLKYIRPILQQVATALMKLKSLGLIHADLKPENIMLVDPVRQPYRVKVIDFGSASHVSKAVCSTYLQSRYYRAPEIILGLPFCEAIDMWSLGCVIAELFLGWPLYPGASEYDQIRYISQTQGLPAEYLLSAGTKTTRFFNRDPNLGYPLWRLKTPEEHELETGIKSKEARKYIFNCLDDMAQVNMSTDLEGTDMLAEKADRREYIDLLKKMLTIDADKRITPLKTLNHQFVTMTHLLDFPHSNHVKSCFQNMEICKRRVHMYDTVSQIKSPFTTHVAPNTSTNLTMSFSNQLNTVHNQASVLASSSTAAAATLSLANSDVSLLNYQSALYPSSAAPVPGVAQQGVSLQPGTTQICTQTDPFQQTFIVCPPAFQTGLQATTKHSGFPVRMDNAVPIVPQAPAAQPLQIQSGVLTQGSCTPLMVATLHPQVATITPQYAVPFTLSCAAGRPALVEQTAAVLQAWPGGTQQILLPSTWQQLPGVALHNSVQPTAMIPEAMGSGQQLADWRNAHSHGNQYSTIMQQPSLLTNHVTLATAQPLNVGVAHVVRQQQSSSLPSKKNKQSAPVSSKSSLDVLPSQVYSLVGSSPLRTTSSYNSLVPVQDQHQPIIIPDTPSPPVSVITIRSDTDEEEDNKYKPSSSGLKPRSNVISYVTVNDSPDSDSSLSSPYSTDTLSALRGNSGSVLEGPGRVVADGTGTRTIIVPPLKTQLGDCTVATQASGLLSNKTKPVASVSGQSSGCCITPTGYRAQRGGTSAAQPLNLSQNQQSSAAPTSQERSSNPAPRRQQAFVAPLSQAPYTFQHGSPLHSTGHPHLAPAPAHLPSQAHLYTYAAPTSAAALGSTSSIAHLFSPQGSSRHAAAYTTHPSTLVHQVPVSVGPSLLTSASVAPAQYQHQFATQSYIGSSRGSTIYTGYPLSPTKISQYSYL"}}, "note": "Like-named read-outs stand apart in the source and are kept apart here."}
{"smiles": "CNC(=O)c1ccc2c(c1)C(=O)c1ccc(Nc3ccc(F)c(NC(=O)C4CC4)c3)cc1CC2", "note": "[Compound 2015]", "values": [{"measurement": "remaining activity at 0.2 µM", "setting": "340 wild-type kinases [1]; 0.2 µM 2015, read-out: TTBK1 residual activity", "value": 88.5, "unit": "%"}, {"measurement": "remaining activity at 1 µM", "setting": "340 wild-type kinases [1]; 1 µM 2015, read-out: TTBK1 residual activity", "value": 93.4, "unit": "%"}, {"measurement": "remaining activity at 0.2 µM", "setting": "340 wild-type kinases [1]; TTBK1, 0.2 µM, read-out: residual activity", "value": 88.5, "unit": "%"}, {"measurement": "remaining activity at 1 µM", "setting": "340 wild-type kinases [1]; TTBK1, 1 µM, read-out: residual activity", "value": 93.4, "unit": "%"}, {"measurement": "remaining activity at 0.2 µM", "setting": "340 wild-type kinases [2]; 0.2 µM 2015, read-out: AKT2 residual activity", "value": 64.5, "unit": "%"}, {"measurement": "remaining activity at 1 µM", "setting": "340 wild-type kinases [2]; 1 µM 2015, read-out: AKT2 residual activity", "value": 93, "unit": "%"}, {"measurement": "remaining activity at 0.2 µM", "setting": "340 wild-type kinases [2]; AKT2, 0.2 µM, read-out: residual activity", "value": 64.5, "unit": "%"}, {"measurement": "remaining activity at 1 µM", "setting": "340 wild-type kinases [2]; AKT2, 1 µM, read-out: residual activity", "value": 93, "unit": "%"}, {"measurement": "remaining activity at 0.2 µM", "setting": "340 wild-type kinases [3]; 0.2 µM 2015, read-out: IRAK4 residual activity", "value": 96.5, "unit": "%"}, {"measurement": "remaining activity at 1 µM", "setting": "340 wild-type kinases [3]; 1 µM 2015, read-out: IRAK4 residual activity", "value": 93.5, "unit": "%"}, {"measurement": "remaining activity at 0.2 µM", "setting": "340 wild-type kinases [3]; IRAK4, 0.2 µM, read-out: residual activity", "value": 96.5, "unit": "%"}, {"measurement": "remaining activity at 1 µM", "setting": "340 wild-type kinases [3]; IRAK4, 1 µM, read-out: residual activity", "value": 93.5, "unit": "%"}, {"measurement": "remaining activity at 0.2 µM", "setting": "340 wild-type kinases [4]; 0.2 µM 2015, read-out: IGF1R residual activity", "value": 109, "unit": "%"}, {"measurement": "remaining activity at 1 µM", "setting": "340 wild-type kinases [4]; 1 µM 2015, read-out: IGF1R residual activity", "value": 97.4, "unit": "%"}, {"measurement": "remaining activity at 0.2 µM", "setting": "340 wild-type kinases [4]; IGF1R, 0.2 µM, read-out: residual activity", "value": 109, "unit": "%"}, {"measurement": "remaining activity at 1 µM", "setting": "340 wild-type kinases [4]; IGF1R, 1 µM, read-out: residual activity", "value": 97.4, "unit": "%"}, {"measurement": "remaining activity at 0.2 µM", "setting": "340 wild-type kinases [5]; 0.2 µM 2015, read-out: CDC7/DBF4 residual activity", "value": 108, "unit": "%"}, {"measurement": "remaining activity at 1 µM", "setting": "340 wild-type kinases [5]; 1 µM 2015, read-out: CDC7/DBF4 residual activity", "value": 95.1, "unit": "%"}, {"measurement": "remaining activity at 0.2 µM", "setting": "340 wild-type kinases [5]; CDC7/DBF4, 0.2 µM, read-out: residual activity", "value": 108, "unit": "%"}, {"measurement": "remaining activity at 1 µM", "setting": "340 wild-type kinases [5]; CDC7/DBF4, 1 µM, read-out: residual activity", "value": 95.1, "unit": "%"}, {"measurement": "remaining activity at 0.2 µM", "setting": "340 wild-type kinases [6]; 0.2 µM 2015, read-out: PHKG1 residual activity", "value": 90.9, "unit": "%"}, {"measurement": "remaining activity at 1 µM", "setting": "340 wild-type kinases [6]; 1 µM 2015, read-out: PHKG1 residual activity", "value": 102, "unit": "%"}, {"measurement": "remaining activity at 0.2 µM", "setting": "340 wild-type kinases [6]; PHKG1, 0.2 µM, read-out: residual activity", "value": 90.9, "unit": "%"}, {"measurement": "remaining activity at 1 µM", "setting": "340 wild-type kinases [6]; PHKG1, 1 µM, read-out: residual activity", "value": 102, "unit": "%"}, {"measurement": "remaining activity at 0.2 µM", "setting": "340 wild-type kinases [7]; 0.2 µM 2015, read-out: ASK1 residual activity", "value": 95.5, "unit": "%"}, {"measurement": "remaining activity at 1 µM", "setting": "340 wild-type kinases [7]; 1 µM 2015, read-out: ASK1 residual activity", "value": 95, "unit": "%"}, {"measurement": "remaining activity at 0.2 µM", "setting": "340 wild-type kinases [7]; ASK1, 0.2 µM, read-out: residual activity", "value": 95.5, "unit": "%"}, {"measurement": "remaining activity at 1 µM", "setting": "340 wild-type kinases [7]; ASK1, 1 µM, read-out: residual activity", "value": 95, "unit": "%"}, {"measurement": "remaining activity at 0.2 µM", "setting": "340 wild-type kinases [8]; 0.2 µM 2015, read-out: SNK residual activity", "value": 103, "unit": "%"}, {"measurement": "remaining activity at 1 µM", "setting": "340 wild-type kinases [8]; 1 µM 2015, read-out: SNK residual activity", "value": 97.3, "unit": "%"}, {"measurement": "remaining activity at 0.2 µM", "setting": "340 wild-type kinases [8]; SNK, 0.2 µM, read-out: residual activity", "value": 103, "unit": "%"}, {"measurement": "remaining activity at 1 µM", "setting": "340 wild-type kinases [8]; SNK, 1 µM, read-out: residual activity", "value": 97.3, "unit": "%"}, {"measurement": "remaining activity at 0.2 µM", "setting": "340 wild-type kinases [9]; 0.2 µM 2015, read-out: HIPK1 residual activity", "value": 98.9, "unit": "%"}, {"measurement": "remaining activity at 1 µM", "setting": "340 wild-type kinases [9]; 1 µM 2015, read-out: HIPK1 residual activity", "value": 102, "unit": "%"}, {"measurement": "remaining activity at 0.2 µM", "setting": "340 wild-type kinases [9]; HIPK1, 0.2 µM, read-out: residual activity", "value": 98.9, "unit": "%"}, {"measurement": "remaining activity at 1 µM", "setting": "340 wild-type kinases [9]; HIPK1, 1 µM, read-out: residual activity", "value": 102, "unit": "%"}]}
